Test results reported in ChEMBL document CHEMBL5715954, “Silencing c-Myc translation as a therapeutic strategy through targeting PI3Kδ and CK1ε in hematological malignancies” (Blood, 2017).

Assays:
Design in all cases: scale not given: the % may be the effect or the level left
[1] = molecular target: T1, Mitogen-activated protein kinase kinase kinase 6 (Homo sapiens) (UniProt O95382); assay: Inhibition of human MEKK6 assessed as enzyme activity at 1 uM using myelin basic protein as substrate preincubated for 20 mins followed by [gamma-33P]-ATP addition and measured after 120 mins by radiometric Hot-SpotSM Kinase assay relative to control
T1 sequence (whole entry): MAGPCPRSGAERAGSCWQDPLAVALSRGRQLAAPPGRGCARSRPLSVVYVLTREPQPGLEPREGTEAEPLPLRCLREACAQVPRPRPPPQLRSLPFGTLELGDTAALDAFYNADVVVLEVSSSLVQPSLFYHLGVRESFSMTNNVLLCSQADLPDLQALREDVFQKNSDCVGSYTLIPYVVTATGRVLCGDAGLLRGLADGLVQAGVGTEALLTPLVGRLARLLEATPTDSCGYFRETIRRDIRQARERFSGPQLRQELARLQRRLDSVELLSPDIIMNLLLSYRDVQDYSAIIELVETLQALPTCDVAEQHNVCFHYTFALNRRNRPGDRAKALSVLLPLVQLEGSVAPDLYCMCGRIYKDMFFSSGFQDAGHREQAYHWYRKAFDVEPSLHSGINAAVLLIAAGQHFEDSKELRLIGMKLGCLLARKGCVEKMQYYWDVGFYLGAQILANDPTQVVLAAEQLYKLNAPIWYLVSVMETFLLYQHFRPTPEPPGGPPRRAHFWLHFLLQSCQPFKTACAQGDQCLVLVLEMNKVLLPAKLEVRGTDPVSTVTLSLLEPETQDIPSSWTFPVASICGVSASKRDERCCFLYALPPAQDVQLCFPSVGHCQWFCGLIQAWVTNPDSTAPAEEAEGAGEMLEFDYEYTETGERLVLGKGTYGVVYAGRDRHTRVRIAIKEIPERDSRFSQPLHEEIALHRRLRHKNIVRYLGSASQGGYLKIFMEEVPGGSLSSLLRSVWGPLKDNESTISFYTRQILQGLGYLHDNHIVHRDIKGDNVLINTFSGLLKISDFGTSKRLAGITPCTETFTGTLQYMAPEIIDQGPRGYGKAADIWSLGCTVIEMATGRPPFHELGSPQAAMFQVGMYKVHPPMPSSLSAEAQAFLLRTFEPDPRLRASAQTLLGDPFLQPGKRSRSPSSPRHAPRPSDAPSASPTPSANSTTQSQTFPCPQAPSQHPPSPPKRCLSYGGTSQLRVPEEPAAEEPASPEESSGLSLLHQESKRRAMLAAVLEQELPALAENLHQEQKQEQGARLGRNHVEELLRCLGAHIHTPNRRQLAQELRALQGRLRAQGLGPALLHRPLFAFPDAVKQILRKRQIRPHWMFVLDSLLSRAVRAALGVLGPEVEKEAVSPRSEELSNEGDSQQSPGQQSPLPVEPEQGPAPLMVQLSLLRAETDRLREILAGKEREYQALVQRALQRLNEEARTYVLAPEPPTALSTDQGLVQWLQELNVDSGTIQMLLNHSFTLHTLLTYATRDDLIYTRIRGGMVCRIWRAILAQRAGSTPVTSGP

[2] = molecular target: T2, Phosphorylase b kinase gamma catalytic chain, liver/testis isoform (Homo sapiens) (UniProt P15735); assay: Inhibition of human PHKg2 assessed as enzyme activity at 1 uM using KKLNRTLSFAEPG as substrate preincubated for 20 mins followed by [gamma-33P]-ATP addition and measured after 120 mins by radiometric Hot-SpotSM Kinase assay relative to control
T2 sequence (whole entry): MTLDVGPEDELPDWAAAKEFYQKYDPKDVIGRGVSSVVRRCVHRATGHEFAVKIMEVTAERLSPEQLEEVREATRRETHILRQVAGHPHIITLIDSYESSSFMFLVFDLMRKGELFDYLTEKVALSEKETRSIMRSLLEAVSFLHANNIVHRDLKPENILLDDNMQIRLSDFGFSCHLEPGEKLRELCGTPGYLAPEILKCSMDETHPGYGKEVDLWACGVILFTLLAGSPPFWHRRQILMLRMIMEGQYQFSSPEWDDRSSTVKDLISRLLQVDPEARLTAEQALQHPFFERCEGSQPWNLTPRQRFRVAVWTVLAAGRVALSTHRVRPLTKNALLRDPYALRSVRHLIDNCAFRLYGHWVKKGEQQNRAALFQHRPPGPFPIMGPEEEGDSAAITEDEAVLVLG

[3] = molecular target: Cyclin-dependent kinase 14/Cyclin-Y (Homo sapiens) (UniProt O94921+Q8ND76); assay: Inhibition of human CDK14/cyclin Y assessed as enzyme activity at 1 uM using RB Protein as substrate preincubated for 20 mins followed by [gamma-33P]-ATP addition and measured after 120 mins by radiometric Hot-SpotSM Kinase assay relative to control; type: protein-complex assay
[4] = molecular target: T3, Aurora kinase A (Homo sapiens) (UniProt O14965); assay: Inhibition of human Aurora A assessed as enzyme activity at 1 uM using H-LRRASLG as substrate preincubated for 20 mins followed by [gamma-33P]-ATP addition and measured after 120 mins by radiometric Hot-SpotSM Kinase assay relative to control
T3 sequence (whole entry): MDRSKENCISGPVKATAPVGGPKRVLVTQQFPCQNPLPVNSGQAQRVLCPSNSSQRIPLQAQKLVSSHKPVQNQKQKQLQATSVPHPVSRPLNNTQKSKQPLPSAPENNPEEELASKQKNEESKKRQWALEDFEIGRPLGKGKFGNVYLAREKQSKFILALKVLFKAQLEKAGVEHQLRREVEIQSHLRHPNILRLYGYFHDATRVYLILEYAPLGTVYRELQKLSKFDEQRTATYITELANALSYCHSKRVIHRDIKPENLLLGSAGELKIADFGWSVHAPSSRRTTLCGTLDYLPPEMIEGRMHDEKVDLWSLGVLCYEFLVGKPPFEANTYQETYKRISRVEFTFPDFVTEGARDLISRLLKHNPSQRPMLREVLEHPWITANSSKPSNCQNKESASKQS

[5] = molecular target: Glycogen synthase kinase-3 alpha (Homo sapiens) (UniProt P49840); assay: Inhibition of human GSK3a assessed as enzyme activity at 1 uM using YRRAAVPPSPSLSRHSSPHQ(pS)EDEEE as substrate preincubated for 20 mins followed by [gamma-33P]-ATP addition and measured after 120 mins by radiometric Hot-SpotSM Kinase assay relative to control
Sequence of Glycogen synthase kinase-3 alpha (Homo sapiens) (P49840 2-483 limits assumed): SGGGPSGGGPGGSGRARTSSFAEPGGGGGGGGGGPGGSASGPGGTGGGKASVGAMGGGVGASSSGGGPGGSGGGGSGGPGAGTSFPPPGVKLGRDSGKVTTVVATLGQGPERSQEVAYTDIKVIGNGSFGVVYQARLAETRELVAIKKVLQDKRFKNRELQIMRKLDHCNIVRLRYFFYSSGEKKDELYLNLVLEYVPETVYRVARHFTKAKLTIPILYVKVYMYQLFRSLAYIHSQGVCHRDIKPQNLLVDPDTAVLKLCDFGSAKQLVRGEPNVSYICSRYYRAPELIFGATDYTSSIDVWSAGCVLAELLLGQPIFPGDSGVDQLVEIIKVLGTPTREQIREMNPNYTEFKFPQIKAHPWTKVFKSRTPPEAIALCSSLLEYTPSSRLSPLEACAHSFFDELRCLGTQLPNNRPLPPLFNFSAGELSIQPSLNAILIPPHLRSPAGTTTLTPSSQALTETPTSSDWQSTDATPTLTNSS

Row | Compound | Activity [1] [%] | Activity [2] [%] | Activity [3] [%] | Activity [4] [%] | Activity [5] [%]
1 | CC[C@H](Nc1ncnc2[nH]cnc12)c1nc2cccc(F)c2c(=O)n1-c1ccccc1 | 96.6 | 89.1 | 77.4 | 104 | 93.7
2 | C[C@H](Nc1ncnc2nc[nH]c12)c1cc2cccc(Cl)c2c(=O)n1-c1ccccc1 | 97.5 | 102 | 85.3 | 96.8 | 95.3
3 | CC(C)Oc1ccc(-c2nn([C@@H](C)c3oc4ccc(F)cc4c(=O)c3-c3cccc(F)c3)c3ncnc(N)c23)cc1F [UMBRALISIB] | 93.9 | 95.4 | 79.3 | 99.5 | 104
